Measured values reported in patent publication US12091425B2 (AMGEN INC., priority 2016, dated 2024).

Target: T1, Mcl-1/Bim interaction, recombinant human Mcl-1 (171-327) (Homo sapiens, UniProt Q07820)
T1 construct: made in house
Test: Cell free Mcl-1: Bim Affinity Assay (Mcl-1 HTRF)
Assay type: binding
Conditions: TR-FRET, 0.1 nM Mcl-1 (171-327), 0.05 nM biotin-Bim (51-76)
Method: Cell free Mcl-1: Bim Affinity Assay (Mcl-1 HTRF)
The inhibition of the Mcl-1/Bim interaction was measured using a time-resolved fluorescence resonance energy transfer (TR-FRET) assay. […] A biotinylated peptide derived from human Bim (residues 51-76) was purchased from CPC Scientific (San Jose, CA). The TR-FRET assay was conducted in a 384-well white OptiPlatem (PerkinElmer, Waltham, MA) in a total volume of 40 μL. […] The reaction plates were further incubated overnight and then were read on an Envision® multimode reader (PerkinElmer). […] The IC50 values of test compounds were determined from duplicate data by analyzing competition curves using a four-parameter sigmoidal model in GraphPad Prism (GraphPad Software, San Diego, CA) or in Genedata Screener® (Genedata, Basel, Switzerland).

T1 sequence (Q07820 171-327): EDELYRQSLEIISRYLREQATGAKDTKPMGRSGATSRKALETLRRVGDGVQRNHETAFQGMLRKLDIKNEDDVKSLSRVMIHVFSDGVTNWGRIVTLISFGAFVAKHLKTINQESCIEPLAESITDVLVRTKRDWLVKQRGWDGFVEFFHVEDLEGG

Compound	IC50 [nM]
CCOC[C@@H]1CC/C=C/[C@H](O)[C@@H]2CC[C@H]2CN2C[C@@]3(CCCc4cc(Cl)ccc43)COc3ccc(cc32)C(=O)NS1(=O)=O (single isomer, unassigned) [Example 439]	0.321
O=C1NS(=O)(=O)C2CCCC(CCC(O)C3CCC3CN3CC4(CCCc5cc(Cl)ccc54)COc4ccc1cc43)C2 (single isomer, unassigned) [Example 106]	16.9
O=C1NS(=O)(=O)C(C(F)F)CCC=CC(O)C2CCC2CN2CC3(CCCc4cc(Cl)ccc43)COc3ccc1cc32 (single isomer, unassigned) [Example 438]	0.731
CC(=O)N1C/C=C/CS(=O)(=O)NC(=O)c2ccc3c(c2)N(C[C@@H]2CC[C@H]2C1)C[C@@]1(CCCc2cc(Cl)ccc21)CO3.CC(=O)N1C/C=C\CS(=O)(=O)NC(=O)c2ccc3c(c2)N(C[C@@H]2CC[C@H]2C1)C[C@@]1(CCCc2cc(Cl)ccc21)CO3 (mixture of isomers) [Example 371, (1S,3′R,6′R,10′E)-8′-acetyl-6-chloro-3,4-dihydro-2H,15′H-spiro[naphthalene-1,22′-[20]oxa[13]thia[1,8,14]triazatetracyclo[14.7.2.0^3,6.0^19,24]pentacosa[10,16,18,24]tetraen]-15′-one 13′,13′-dioxide and (1S,3′R,6′R,10′Z)-8′-acetyl-6-chloro-3,4-dihydro-2H,15′H-spiro[naphthalene-1,22′-[20]oxa[13]thia[1,8,14]triazatetracyclo[14.7.2.0^3,6.0^19,24]pentacosa[10,16,18,24]tetraen]-15′-one 13′,13′-dioxide]	20.8
COCCO[C@H]1/C=C/CC[C@@H](C)S(=O)(=O)NC(=O)c2ccc3c(c2)N(C[C@@H]2CC[C@H]21)C[C@@]1(CCCc2cc(Cl)ccc21)CO3 [Example 405, (1S,3′R,6′R,7′S,8′E,12′R)-6-chloro-7′-(2-methoxyethoxy)-12′-methyl-3,4-dihydro-2H,15′H-spiro[naphthalene-1,22′-[20]oxa[13]thia[1,14]diazatetracyclo[14.7.2.0^3,6.0^19,24]pentacosa [8,16,18,24]tetraen]-15′-one 13′,13′-dioxide]	0.543
O=C1NS(=O)(=O)[C@@H](CCOC(F)(F)F)CC/C=C/[C@H](O)[C@@H]2CC[C@H]2CN2C[C@@]3(CCCc4cc(Cl)ccc43)COc3ccc1cc32 (single isomer, unassigned) [Example 1013]	18.1
O=C1NS(=O)(=O)[C@H]2COC[C@H]2C/C=C/[C@H](O)[C@@H]2CC[C@H]2CN2C[C@@]3(CCCc4cc(Cl)ccc43)COc3ccc1cc32 (single isomer, unassigned) [Example 1029]	4.42
CC[C@@H]1CC/C=C/[C@H](OCC(=O)NC)[C@@H]2CC[C@H]2CN2C[C@@]3(CCCc4cc(Cl)ccc43)COc3ccc(cc32)C(=O)NS1(=O)=O [Example 974, 2-(((1S,3′R,6′R,7′S,8′E,12′R)-6-chloro-12′-ethyl-13′,13′-dioxido-15′-oxo-3,4-dihydro-2H-spiro[naphthalene-1,22′-[20]oxa[13]thia[1,14]diazatetracyclo[14.7.2.0^3,6.0^19,24]pentacosa [8,16,18,24]tetraen]-7′-yl)oxy)-N-methylacetamide]	0.716
CC[C@@H]1CC/C=C/[C@H](OCCN2CCOCC2)[C@@H]2CC[C@H]2CN2C[C@@]3(CCCc4cc(Cl)ccc43)COc3ccc(cc32)C(=O)NS1(=O)=O [Example 984, (1S,3′R,6′R,7′S,8′E,12′R)-6-chloro-12′-ethyl-7′-(2-(4-morpholinyl)ethoxy)-3,4-dihydro-2H,15′H-spiro[naphthalene-1,22′-[20]oxa[13]thia[1,14]diazatetracyclo[14.7.2.0^3,6.0^19,24]pentacosa [8,16,18,24]tetraen]-15′-one 13′,13′-dioxide]	1.09
O=C1NS(=O)(=O)[C@H]2C[C@@H](O)C[C@@H]2C/C=C/[C@H](O)[C@@H]2CC[C@H]2CN2C[C@@]3(CCCc4cc(Cl)ccc43)COc3ccc1cc32 (single isomer, unassigned) [Example 336]	1.51
CC[C@@H]1CC/C=C/[C@H](OCC2CCOCC2)[C@@H]2CC[C@H]2CN2C[C@@]3(CCCc4cc(Cl)ccc43)COc3ccc(cc32)C(=O)NS1(=O)=O [Example 983, (1S,3′R,6′R,7′S,8′E,12′R)-6-chloro-12′-ethyl-7′-(tetrahydro-2H-pyran-4-ylmethoxy)-3,4-dihydro-2H,15′H-spiro[naphthalene-1,22′-[20]oxa[13]thia[1,14]diazatetracyclo[14.7.2.0^3,6.0^19,24]pentacosa [8,16,18,24]tetraen]-15′-one 13′,13′-dioxide]	1.23

Same assay, conditions: cell free Mcl-1:Bim TR-FRET, recombinant human Mcl-1 (171-327)

Compound	IC50 [nM]
O=C1NS(=O)(=O)C/C=C/[C@@H](O)CC[C@@H]2CC[C@H]2CN2C[C@@]3(CCCc4cc(Cl)ccc43)COc3ccc1cc32 (single isomer, unassigned) [Example 501]	1.49
CS(=O)(=O)N[C@@H]1CCCCCS(=O)(=O)NC(=O)c2ccc3c(c2)N(C[C@@H]2CC[C@H]21)C[C@@]1(CCCc2cc(Cl)ccc21)CO3 (single isomer, unassigned) [Example 938]	5.94
O=C1NS(=O)(=O)CCOC[C@@H](O)C[C@H]2CC[C@H]2CN2C[C@@]3(CCCc4cc(Cl)ccc43)COc3ccc1cc32 (single isomer, unassigned) [Example 780, (3R,6R,8S,22S)-6′-chloro-8-hydroxy-3′,4′-dihydro-2′H,15H-spiro[10,20-dioxa-13-thia-1,14-diazatetracyclo[14.7.2.0^3,6.0^19,24]pentacosa-16,18,24-triene-22, 1′-naphthalen]-15-one-13, 13-dioxide or (3R,6R,8R,22S)-6′-chloro-8-hydroxy-3′,4′-dihydro-2′H,15H-spiro[10,20-dioxa-13-thia-1,14-diazatetracyclo[14.7.2.0^3,6.0^19,24]pentacosa-16,18,24-triene-22, 1′-naphthalen]-15-one-13, 13-dioxide]	4.84
O=C1NS(=O)(=O)[C@H](CCOc2ccc(Br)cc2)CC/C=C/[C@H](O)[C@@H]2CC[C@H]2CN2C[C@@]3(CCCc4cc(Cl)ccc43)COc3ccc1cc32 (single isomer, unassigned) [Example 625]	38.3
O=C1C[C@H](O)[C@@H]2CC[C@H]2CN2C[C@@]3(CCCc4cc(Cl)ccc43)COc3ccc(cc32)C(=O)NS(=O)(=O)CCN1 (single isomer, unassigned) [Example 680]	26.8
O=C1NS(=O)(=O)C[C@@H](CO)C/C=C/C[C@H](O)[C@@H]2CC[C@H]2CN2C[C@@]3(CCCc4cc(Cl)ccc43)COc3ccc1cc32.O=C1NS(=O)(=O)C[C@H](CO)C/C=C/C[C@H](O)[C@@H]2CC[C@H]2CN2C[C@@]3(CCCc4cc(Cl)ccc43)COc3ccc1cc32 (mixture of isomers) [Example 710]	25.6
O=C1NS(=O)(=O)CCOCCC[C@@H]2CC[C@H]2CN2C[C@@]3(CCc4cc(Cl)ccc43)COc3ccc1cc32 (single isomer, unassigned) [Example 816]	4.72
O=C1NS(=O)(=O)CCCC/C=C/[C@@H]2CC[C@H]2CN2C[C@@]3(CCCc4cc(Cl)ccc43)COc3ccc1cc32 [Example 858, (1S,3′R,6′S, 7′E)-6-chloro-3,4-dihydro-2H,15′H-spiro[naphthalene-1,22′-[20]oxa[13]thia[1,14]diazatetracyclo[14.7.2.0^3,6.0^19,24]pentacosa [7,16,18,24]tetraen]-15′-one 13′,13′-dioxide]	27.8
O=C1NS(=O)(=O)CCC[C@@H]2C[C@H]2[C@H](O)[C@@H]2CC[C@H]2CN2C[C@@]3(CCCc4cc(Cl)ccc43)COc3ccc1cc32 (single isomer, unassigned) [Example 950]	1.49
CC(C)[C@@H]1CCCC[C@H](O)[C@@H]2CC[C@H]2CN2C[C@@]3(CCCc4cc(Cl)ccc43)COc3ccc(cc32)C(=O)NS1(=O)=O (single isomer, unassigned) [Example 752]	4.39
O=C1NS(=O)(=O)CC/C=C/CC(=O)[C@@H]2CC[C@H]2CN2C[C@@]3(CCCc4cc(Cl)ccc43)COc3ccc1cc32 [Example 905, (1S,3′R,6′R,9′E)-6-chloro-3,4-dihydro-2H,7′H,15′H-spiro[naphthalene-1,22′-[20]oxa[13]thia[1,14]diazatetracyclo[14.7.2.0^3,6.0^19,24]pentacosa [9,16,18,24]tetraene]-7′,15′-dione 13′,13′-dioxide]	14.1
CC1C(O)CC=CCC2CCC2CN2CC3(CCCc4cc(Cl)ccc43)COc3ccc(cc32)C(=O)NS1(=O)=O (single isomer, unassigned) [Example 507]	18.3
O=C1NS(=O)(=O)C[C@@H](O)/C=C/C[C@H](O)[C@@H]2CC[C@H]2CN2C[C@@]3(CCCc4cc(Cl)ccc43)COc3ccc1cc32 (single isomer, unassigned) [Example 597]	1.46
O=C1NS(=O)(=O)C/C=C/C[C@H](O)[C@@H]2CC[C@H]2CN2C[C@@]3(CCCc4cc(Cl)ccc43)COc3ccc1cc32 [Example 771, (1S,3′R,6′R,7′S,9′E)-6-chloro-7′-hydroxy-3,4-dihydro-2H,14′H-spiro[naphthalene-1,21′-[19]oxa[12]thia[1,13]diazatetracyclo [13.7.2.0^3,6.0^18,23]tetracosa[9,15,17,23]tetraen]-14′-one 12′,12′-dioxide]	4.09
